Source: ChEMBL document CHEMBL1201862, “PubChem BioAssay data set” (2004)
Active and inactive are the calls of the source.

Key:
[1] = target: T1, Polyadenylate-binding protein 1 (Homo sapiens, UniProt P11940); experiment: PABP inhibition in translation initiation, SAR follow-up (AID 435018); assay type: functional
[2] = target: Eukaryotic translation initiation factor 4H (Homo sapiens, UniProt Q15056); experiment: eIF4H inhibition in translation initiation, SAR follow-up (AID 435011); assay type: functional
[3] = target: Endoplasmic reticulum aminopeptidase 1 (Homo sapiens, UniProt Q9NZ08); experiment: ERAP1 aminopeptidase inhibitors, dose response, biochemical, cherry-pick, set 2, plate reader (AID 743314)
[4] = target: T1, Polyadenylate-binding protein 1; experiment: PABP1 MLLE–PAM2 interaction inhibitors, dose response, miRNA deadenylation inhibitor project, biochemical, fluorescence polarization, Cy5-PAM2 peptide, secondary (AID 602260); assay type: functional; settings: read-out: IC50_Mean
[5] = target: Female germline-specific tumor suppressor gld-1 (Caenorhabditis elegans, UniProt Q17339); experiment: inhibitors of GLD-1 binding to TGE RNA, dose response, biochemical, fluorescence polarization, C. elegans (AID 2802);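 note: fluorescence polarization of labeled TGE RNA bound by purified gld-1 protein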
[6] = target: T1, Polyadenylate-binding protein 1; experiment: PABP1 MLLE–PAM2 binding inhibitor potency, dose response, biochemical, fluorescence polarization, FITC-PAM2 peptide (AID 602259); assay type: functional; settings: read-out: IC50_Mean
Protein Rev = Protein Rev (Human immunodeficiency virus type 1 group M subtype B (isolate HXB2)(HIV-1), UniProt P04618); experiment: inhibitors of Rev binding to RRE RNA, dose response, biochemical, fluorescence polarization, HIV-1 (AID 434976); design: species or system Human immunodeficiency virus 1
Chain of Protein Rev (P04618 whole entry): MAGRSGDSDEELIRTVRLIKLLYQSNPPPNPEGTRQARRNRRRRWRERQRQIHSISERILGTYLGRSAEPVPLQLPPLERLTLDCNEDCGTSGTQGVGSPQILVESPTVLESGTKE

[7] = target: T2, Microphthalmia-associated transcription factor (Homo sapiens, UniProt O75030); experiment: TRPM1 promoter luciferase signal decrease, dose response, MITF inhibitor project, cell-based, SK-MEL-5, cherry-picked, set 3 (AID 493073); assay type: functional
T2 sequence (O75030 whole entry): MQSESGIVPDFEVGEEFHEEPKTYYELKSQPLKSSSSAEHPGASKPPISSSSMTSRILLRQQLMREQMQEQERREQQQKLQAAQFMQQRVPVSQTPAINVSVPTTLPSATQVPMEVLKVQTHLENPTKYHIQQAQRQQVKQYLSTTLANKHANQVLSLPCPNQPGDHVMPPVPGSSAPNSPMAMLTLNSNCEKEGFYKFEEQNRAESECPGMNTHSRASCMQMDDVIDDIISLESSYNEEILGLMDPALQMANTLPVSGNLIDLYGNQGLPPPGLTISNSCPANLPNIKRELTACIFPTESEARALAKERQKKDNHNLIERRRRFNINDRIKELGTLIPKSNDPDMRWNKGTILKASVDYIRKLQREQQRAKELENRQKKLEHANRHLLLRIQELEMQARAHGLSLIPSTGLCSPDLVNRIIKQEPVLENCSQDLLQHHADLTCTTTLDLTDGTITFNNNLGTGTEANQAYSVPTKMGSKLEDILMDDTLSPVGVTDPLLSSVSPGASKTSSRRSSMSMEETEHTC

[8] = target: Neurotensin receptor type 1 (Homo sapiens, UniProt P30989); assay type: functional;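 note: Image-based confirmatory dose-response assay measuring agonist activity at NTR1; NTR1-expressing U2OS osteosarcoma cells imaged for beta-arrestin GFP spot formation; agonist potency where compounds increase beta-arrestin recruitment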
Vero = experiment: cells; assay type: functional; settings: Chlorocebus sabaeus
[9] = target: C-C chemokine receptor type 6 (Homo sapiens, UniProt P51684); experiment: CCR6 receptor antagonists, dose response, cell-based, luminescent beta-arrestin readout (AID 504728); assay type: functional
Chain of C-C chemokine receptor type 6 (P51684 whole entry): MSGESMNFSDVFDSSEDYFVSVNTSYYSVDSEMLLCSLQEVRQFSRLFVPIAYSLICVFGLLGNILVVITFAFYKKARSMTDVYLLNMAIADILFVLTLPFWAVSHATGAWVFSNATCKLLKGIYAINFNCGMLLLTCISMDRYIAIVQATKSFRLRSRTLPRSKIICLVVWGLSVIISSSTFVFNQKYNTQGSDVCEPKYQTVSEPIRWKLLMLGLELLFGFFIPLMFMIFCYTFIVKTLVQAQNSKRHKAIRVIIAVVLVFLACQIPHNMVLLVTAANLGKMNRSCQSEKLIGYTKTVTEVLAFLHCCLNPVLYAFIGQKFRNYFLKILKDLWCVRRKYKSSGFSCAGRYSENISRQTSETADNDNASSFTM

Beta-galactosidase = Beta-galactosidase (Escherichia coli, UniProt Q8VNN2); experiment: beta-galactosidase enzyme inhibitors and activators, dose response, artefact control for CCR6 antagonist project, biochemical, E. coli enzyme, set 3 (AID 504712); assay type: functional
cells = assay type: functional
[10] = Luminescence Cell-Based Dose Confirmation HTS to Identify Inhibitors of Platelet Dense Granule Release. [Related pubchem assays: 1663 (Primary HTS), 1678 (Summary of Project)]; assay type: functional
[11] = Luminescence Cell-Based Dose Response HTS to Identify Inhibitors of 5'UTR Stem-Loop Driven Prion Protein mRNA Translation in H4 Neuroglioblastoma Cells. [Related pubchem assays: 1827 (Project Summary), 1813 (Primary HTS)]; assay type: functional
[12] = target: Luciferin 4-monooxygenase (Photinus pyralis, UniProt P08659); experiment: firefly luciferase enzyme inhibitors, dose response, biochemical, luminescence (AID 1891)
HEK293 = experiment: inhibitors of LMP1-driven NF-kB reporter, dose response, cell-based, HEK293, luciferase, cherry-pick (AID 588343); assay type: functional; settings: Homo sapiens
[13] = inhibitors of firefly luciferase expression or activity, dose response, H4 neuroglioma cells, luminescence (AID 1990); assay type: functional, cell-based
[14] = inhibitors of SNCA 5'UTR-driven reporter translation, confirmation, H4 neuroglioma cells, luminescence (AID 1988); assay type: functional, cell-based
[15] = inhibition of ADP-Glo detection reagents, dose response, artefact control for CDK5 inhibitor project, biochemical, luminescence, cherry-picked samples, set 2 (AID 504546); assay type: functional
[16] = target: Cyclin-dependent kinase 5/CDK5 activator 1 (Homo sapiens, UniProt Q00535); experiment: CDK5/p35 kinase inhibitors, dose response, biochemical, cherry-picked samples, set 2 (AID 504545)
[17] = target: T3, Delta-type opioid receptor (Homo sapiens, UniProt P41143); experiment: HTS Image-Based Screen for Antagonists of the DOR Receptor. [Related pubchem assays (depositor defined):AID1777, AID1785, AID1786, AID2133]; assay type: functional
T3 sequence (P41143 whole entry): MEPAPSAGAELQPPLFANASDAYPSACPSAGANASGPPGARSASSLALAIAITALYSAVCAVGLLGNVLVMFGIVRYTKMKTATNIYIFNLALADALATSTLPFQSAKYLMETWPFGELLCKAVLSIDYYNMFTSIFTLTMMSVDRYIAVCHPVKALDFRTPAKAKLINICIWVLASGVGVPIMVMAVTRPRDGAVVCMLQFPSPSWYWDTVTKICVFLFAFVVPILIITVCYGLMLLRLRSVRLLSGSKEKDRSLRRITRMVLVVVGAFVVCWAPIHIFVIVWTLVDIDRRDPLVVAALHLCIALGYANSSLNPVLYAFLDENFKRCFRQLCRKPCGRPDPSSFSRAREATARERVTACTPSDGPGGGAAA

Melanocortin receptor 4 = Melanocortin receptor 4 (Homo sapiens, UniProt P32245); assay type: functional, cell-based;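 note: Cell-based assay with luminescence read-out, confirmatory dose-response testing for agonist activity of biased ligands at MC4R; human U2OS cells with tagged receptor and beta-arrestin; potency of agonists that increase receptor coupling to beta-arrestin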
[18] = target: T4, Kappa-type opioid receptor (Homo sapiens, UniProt P41145); assay type: functional
T4 sequence (P41145 whole entry): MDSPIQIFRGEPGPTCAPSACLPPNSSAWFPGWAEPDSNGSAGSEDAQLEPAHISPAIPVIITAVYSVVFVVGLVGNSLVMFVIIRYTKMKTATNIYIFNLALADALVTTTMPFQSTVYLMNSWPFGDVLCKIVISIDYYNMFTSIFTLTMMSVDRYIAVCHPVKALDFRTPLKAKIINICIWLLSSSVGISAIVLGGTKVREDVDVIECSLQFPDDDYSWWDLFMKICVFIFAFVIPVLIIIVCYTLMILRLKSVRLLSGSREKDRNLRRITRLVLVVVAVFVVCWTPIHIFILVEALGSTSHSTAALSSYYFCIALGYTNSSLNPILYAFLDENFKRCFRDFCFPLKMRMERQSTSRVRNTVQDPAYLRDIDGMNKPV

[19] = target: T3, Delta-type opioid receptor; experiment: HTS Image-Based Screen for Agonists of the DOR Receptor. [Related pubchem assays (depositor defined):AID1777, AID1786, AID2133]; assay type: functional
Mu-type opioid receptor = Mu-type opioid receptor (Homo sapiens, UniProt P35372); experiment: HTS Image-Based Screen for Agonists of the MOR Receptor. [Related pubchem assays (depositor defined):AID1777, AID1785, AID1786, AID2133]; assay type: functional;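 note: imaging of beta-arrestin GFP recruitment into spots after receptor activation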
Chain of Mu-type opioid receptor (P35372 whole entry): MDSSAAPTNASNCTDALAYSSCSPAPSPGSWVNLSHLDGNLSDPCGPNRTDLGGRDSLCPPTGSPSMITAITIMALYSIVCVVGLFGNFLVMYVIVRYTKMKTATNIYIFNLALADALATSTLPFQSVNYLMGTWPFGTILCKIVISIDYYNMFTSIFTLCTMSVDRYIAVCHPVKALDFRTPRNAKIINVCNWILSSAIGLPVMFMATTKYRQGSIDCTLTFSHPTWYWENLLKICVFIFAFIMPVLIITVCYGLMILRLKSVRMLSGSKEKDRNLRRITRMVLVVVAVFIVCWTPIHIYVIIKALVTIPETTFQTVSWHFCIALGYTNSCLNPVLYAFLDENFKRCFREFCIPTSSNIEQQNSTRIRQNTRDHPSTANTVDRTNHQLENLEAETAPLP

[20] = target: T4, Kappa-type opioid receptor; assay type: functional; remark: listed apart in the source
[21] = target: T5, Short transient receptor potential channel 4 (Mus musculus, UniProt Q9QUQ5); experiment: TRPC4 positive allosteric modulators, dose response, cell-based, HEK293 TRPC4/mu-opioid, Fluo-4 calcium, EC20 DAMGO (AID 434941); assay type: functional
T5 sequence (Q9QUQ5 whole entry): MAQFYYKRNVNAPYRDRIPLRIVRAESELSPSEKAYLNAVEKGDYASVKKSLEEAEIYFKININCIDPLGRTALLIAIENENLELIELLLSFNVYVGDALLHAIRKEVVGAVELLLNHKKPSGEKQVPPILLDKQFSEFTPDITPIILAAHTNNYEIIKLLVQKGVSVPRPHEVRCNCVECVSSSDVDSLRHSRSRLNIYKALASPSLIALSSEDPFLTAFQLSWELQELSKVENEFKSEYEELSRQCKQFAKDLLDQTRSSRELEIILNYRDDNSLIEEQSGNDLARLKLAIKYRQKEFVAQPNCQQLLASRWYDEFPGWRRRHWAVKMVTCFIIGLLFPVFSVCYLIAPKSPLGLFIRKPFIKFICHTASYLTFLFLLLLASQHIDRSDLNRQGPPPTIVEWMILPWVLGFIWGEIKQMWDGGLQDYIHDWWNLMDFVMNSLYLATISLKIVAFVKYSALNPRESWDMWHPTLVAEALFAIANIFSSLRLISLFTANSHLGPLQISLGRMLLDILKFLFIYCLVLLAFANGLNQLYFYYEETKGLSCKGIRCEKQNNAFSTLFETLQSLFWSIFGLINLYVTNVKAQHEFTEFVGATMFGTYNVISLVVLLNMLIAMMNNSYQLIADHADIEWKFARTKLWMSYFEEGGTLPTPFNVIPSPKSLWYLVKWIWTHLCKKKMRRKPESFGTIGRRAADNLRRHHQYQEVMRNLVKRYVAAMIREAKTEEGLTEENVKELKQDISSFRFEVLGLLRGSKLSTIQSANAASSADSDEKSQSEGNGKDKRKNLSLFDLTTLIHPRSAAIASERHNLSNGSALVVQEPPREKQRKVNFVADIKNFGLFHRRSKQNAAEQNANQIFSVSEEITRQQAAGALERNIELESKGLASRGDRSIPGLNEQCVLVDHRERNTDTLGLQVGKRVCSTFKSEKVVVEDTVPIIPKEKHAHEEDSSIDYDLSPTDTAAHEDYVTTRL

Cytochrome P450 3A4 = Cytochrome P450 3A4 (Homo sapiens, UniProt P08684);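 note: CYP3A4 tested as one member of a cytochrome P450 panel screen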
Caspase-7 = Caspase-7 (Homo sapiens, UniProt P55210); experiment: procaspase-7 activators, dose response, counter-screen for procaspase-3 activator project, biochemical, absorbance (AID 489013)
Chain of Caspase-7 (P55210 24-198 limits assumed): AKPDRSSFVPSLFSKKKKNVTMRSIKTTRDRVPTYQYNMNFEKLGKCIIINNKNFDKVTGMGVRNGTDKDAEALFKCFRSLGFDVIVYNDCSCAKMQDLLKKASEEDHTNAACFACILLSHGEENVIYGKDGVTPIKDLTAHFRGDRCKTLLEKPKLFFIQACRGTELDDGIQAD
Chain of Caspase-7 (P55210 207-303 limits assumed): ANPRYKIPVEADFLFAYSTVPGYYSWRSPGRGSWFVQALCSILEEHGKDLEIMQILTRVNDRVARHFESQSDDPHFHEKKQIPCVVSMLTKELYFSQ

[22] = target: T6, Corticotropin-releasing factor receptor 2/Corticotropin-releasing factor-binding protein (Homo sapiens, UniProt P24387+Q13324); experiment: Dose Response confirmation of uHTS hits for small molecule antagonists of the CRF-binding protein and CRF-R2 receptor complex.; assay type: functional; settings: read-out: IC50_Mean
T6 sequence (Q13324 whole entry): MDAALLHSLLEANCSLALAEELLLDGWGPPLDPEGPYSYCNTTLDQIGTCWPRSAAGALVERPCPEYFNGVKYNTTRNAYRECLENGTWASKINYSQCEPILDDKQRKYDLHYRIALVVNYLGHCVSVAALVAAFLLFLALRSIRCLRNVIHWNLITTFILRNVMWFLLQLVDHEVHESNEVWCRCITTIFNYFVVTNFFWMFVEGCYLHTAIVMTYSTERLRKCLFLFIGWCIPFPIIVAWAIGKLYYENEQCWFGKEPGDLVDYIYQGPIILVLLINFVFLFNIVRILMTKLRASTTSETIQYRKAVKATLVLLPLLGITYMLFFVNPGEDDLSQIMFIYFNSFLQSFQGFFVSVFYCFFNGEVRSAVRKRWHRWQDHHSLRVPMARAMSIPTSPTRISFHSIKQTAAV
T6 sequence (P24387 whole entry): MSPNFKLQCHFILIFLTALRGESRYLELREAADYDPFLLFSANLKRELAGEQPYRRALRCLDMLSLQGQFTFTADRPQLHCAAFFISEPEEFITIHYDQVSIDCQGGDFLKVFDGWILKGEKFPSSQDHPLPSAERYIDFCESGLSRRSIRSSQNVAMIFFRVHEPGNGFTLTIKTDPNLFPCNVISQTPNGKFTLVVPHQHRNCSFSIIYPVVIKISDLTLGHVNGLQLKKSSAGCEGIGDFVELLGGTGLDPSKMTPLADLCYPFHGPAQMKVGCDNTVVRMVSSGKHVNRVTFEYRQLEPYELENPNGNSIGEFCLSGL

Caspase-3 = target: T7, Caspase-3 (Homo sapiens, UniProt P42574); experiment: procaspase-3 activators, dose response, biochemical, absorbance (AID 489014)
T7 sequence (P42574 whole entry): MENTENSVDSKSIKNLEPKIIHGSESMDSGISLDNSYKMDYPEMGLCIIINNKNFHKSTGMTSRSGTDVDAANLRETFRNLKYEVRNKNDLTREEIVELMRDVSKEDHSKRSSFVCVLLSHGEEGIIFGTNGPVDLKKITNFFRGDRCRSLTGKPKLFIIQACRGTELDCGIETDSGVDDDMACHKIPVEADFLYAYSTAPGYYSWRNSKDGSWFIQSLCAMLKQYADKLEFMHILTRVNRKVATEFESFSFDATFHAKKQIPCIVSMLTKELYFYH

[23] = target: T6, Corticotropin-releasing factor receptor 2/Corticotropin-releasing factor-binding protein; experiment: activators of CRF receptor 2 with binding protein – uHTS hits, confirmation (AID 602473); assay type: functional; settings: read-out: EC50_Mean
[24] = target: Voltage-dependent T-type calcium channel subunit alpha-1H (Homo sapiens, UniProt O95180); experiment: Cav3.2 T-type channel inhibitors, cell-based, synthetic library set 1, calcium flux (AID 493022); assay type: functional
Chain of Voltage-dependent T-type calcium channel subunit alpha-1H (O95180 whole entry): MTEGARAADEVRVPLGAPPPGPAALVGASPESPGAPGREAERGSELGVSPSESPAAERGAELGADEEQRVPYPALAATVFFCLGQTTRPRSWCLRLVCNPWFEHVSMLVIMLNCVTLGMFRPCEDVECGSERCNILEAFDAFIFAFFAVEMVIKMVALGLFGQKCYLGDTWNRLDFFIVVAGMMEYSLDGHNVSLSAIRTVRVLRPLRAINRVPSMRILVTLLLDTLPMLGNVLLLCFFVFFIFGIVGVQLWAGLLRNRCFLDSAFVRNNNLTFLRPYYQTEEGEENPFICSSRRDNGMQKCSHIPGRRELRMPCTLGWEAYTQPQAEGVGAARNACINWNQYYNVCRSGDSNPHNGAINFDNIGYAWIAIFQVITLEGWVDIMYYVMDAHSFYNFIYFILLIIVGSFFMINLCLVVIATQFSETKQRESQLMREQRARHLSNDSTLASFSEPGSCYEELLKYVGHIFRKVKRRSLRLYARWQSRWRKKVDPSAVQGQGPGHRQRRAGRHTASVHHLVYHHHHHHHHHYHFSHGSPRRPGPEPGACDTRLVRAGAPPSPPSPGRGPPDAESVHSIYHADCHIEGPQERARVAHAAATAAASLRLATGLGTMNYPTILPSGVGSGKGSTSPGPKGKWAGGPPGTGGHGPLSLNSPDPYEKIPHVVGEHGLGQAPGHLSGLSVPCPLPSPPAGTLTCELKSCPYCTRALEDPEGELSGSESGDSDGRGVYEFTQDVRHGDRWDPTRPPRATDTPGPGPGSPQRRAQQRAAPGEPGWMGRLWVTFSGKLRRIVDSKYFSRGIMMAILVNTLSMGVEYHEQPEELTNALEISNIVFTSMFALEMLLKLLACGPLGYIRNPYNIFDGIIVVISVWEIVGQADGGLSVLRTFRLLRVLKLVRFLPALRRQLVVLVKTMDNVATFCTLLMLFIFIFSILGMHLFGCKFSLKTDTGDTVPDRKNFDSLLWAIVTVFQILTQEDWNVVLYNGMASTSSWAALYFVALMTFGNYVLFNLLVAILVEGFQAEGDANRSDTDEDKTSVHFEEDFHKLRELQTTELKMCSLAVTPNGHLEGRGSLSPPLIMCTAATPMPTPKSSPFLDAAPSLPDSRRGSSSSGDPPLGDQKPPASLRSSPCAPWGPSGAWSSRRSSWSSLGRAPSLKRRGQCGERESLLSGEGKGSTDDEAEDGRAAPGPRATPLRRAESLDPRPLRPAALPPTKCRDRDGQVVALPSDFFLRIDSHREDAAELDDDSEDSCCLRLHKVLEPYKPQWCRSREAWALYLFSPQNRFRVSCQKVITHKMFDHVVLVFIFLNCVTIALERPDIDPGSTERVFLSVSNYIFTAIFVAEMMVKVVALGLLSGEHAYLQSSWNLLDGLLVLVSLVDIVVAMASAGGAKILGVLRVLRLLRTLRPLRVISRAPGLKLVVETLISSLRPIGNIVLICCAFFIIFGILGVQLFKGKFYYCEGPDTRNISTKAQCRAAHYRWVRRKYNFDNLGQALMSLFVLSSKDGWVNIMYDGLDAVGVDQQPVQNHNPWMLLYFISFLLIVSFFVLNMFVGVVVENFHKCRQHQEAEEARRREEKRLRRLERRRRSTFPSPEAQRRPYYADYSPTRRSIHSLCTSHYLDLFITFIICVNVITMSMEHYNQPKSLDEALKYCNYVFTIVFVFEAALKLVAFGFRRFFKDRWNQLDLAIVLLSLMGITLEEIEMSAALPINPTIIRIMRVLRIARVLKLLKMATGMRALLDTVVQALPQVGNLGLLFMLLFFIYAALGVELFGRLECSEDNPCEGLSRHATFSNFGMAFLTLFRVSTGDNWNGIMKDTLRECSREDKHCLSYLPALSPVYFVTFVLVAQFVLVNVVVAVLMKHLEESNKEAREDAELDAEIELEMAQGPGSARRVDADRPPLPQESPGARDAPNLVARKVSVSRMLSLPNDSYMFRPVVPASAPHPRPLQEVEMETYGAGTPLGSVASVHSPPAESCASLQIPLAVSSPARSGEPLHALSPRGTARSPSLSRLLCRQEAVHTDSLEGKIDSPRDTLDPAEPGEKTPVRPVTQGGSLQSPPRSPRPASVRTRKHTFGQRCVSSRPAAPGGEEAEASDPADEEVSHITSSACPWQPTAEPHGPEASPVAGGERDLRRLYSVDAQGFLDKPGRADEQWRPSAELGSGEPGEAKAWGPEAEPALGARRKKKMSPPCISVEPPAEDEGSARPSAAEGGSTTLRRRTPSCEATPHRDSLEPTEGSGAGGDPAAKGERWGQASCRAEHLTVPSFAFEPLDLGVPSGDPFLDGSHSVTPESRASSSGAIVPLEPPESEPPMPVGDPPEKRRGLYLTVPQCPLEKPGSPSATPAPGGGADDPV

T1 sequence (P11940 whole entry): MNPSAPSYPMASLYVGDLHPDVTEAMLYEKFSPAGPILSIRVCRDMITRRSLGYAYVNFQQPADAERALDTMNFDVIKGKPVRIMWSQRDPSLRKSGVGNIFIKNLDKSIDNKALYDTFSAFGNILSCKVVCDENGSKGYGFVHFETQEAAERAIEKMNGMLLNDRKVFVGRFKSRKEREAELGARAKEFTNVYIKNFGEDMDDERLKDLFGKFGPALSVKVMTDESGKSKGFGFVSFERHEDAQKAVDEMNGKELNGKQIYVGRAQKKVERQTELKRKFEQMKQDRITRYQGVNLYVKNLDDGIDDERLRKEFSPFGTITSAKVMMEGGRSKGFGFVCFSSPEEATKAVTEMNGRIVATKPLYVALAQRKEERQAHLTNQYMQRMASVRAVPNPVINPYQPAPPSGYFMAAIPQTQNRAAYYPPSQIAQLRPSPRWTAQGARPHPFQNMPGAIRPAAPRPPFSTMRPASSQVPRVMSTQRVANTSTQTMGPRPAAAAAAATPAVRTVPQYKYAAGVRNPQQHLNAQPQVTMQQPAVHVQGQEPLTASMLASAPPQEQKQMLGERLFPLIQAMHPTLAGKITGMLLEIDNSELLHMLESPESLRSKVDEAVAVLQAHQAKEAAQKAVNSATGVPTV

In the case of `COc1ccc(OC)c([N+]2=C3SCCCN3C(O)(c3cccs3)C2)c1` (centres undefined), the IC50 [1] is reported as > 100 µM (inactive) and the IC50 [2] is reported as > 100 µM (inactive).
With `Cc1c(O)ccc2cc(S(=O)(=O)c3ccccc3)c(=O)oc12` the AC50 [3] was 3.32 µM (active), the IC50 [4] was > 66 µM (inactive) and the IC50 [5] was 4.72 µM (active). The IC50 [6] was 46.7 µM (inactive) and the IC50 (Protein Rev) was 14.2 µM (not active).
For `Cc1cccc(N2C(=O)NC(=O)/C(=C\c3cccn3-c3ccc(Cl)cc3)C2=O)c1`, the AC50 [7] was 8.91 µM (active), the EC50 [8] was 9.06 µM (active) and the CC50 (Vero) was 23.4 µM (active).
With `CN(C)CC1CCC/C(=C\c2ccc(OC(=O)c3ccc(Cl)cc3)cc2)C1=O` (centres undefined) the IC50 [9] was 47.6 µM (inactive) and the IC50 (Beta-galactosidase) was > 66.6 µM (inactive).
With `CCOc1ccc(OCC(=O)Nc2nccs2)cc1` the IC50 (cells) was 20.2 µM (active), the EC50 [10] was 2.37 µM (active) and the EC50 [11] was 9.78 µM (active). The EC50 [12] was 5.61 µM (active), the AC50 (HEK293) was 2.74 µM (active) and the EC50 [13] was 8.12 µM (active). For the same molecule, the EC50 [14] was 6.85 µM (active), the AC50 [15] was 31.3 µM (active) and the AC50 [16] was 21.2 µM (active).
With `Cc1ccccc1NC(=O)c1ccc(COc2ccc3c(C)cc(=O)oc3c2)cc1` the IC50 [17] was > 32 µM (inactive), the EC50 (Melanocortin receptor 4) was > 89.3 µM (inactive) and the EC50 [18] was over 35 µM. For the same molecule, the EC50 [19] was > 32 µM (inactive), the EC50 (Mu-type opioid receptor) was > 32 µM (inactive) and the EC50 [20] was 18.1 µM.
In the case of `Cc1cccc(Cc2c(C)nc3c(C(=O)NCc4ccco4)cnn3c2C)c1`, the EC50 [21] is reported as 3.76 µM (active).
For `COC(=O)C1=C(NC(=O)c2cccc(OC)c2)CCS1`, the AC50 (Cytochrome P450 3A4) was 25.1 µM (inconclusive), the EC50 (Caspase-7) was > 85.3 µM (inactive) and the IC50 [22] was > 47.1 µM (inactive). The EC50 (Caspase-3) was > 85.3 µM (inactive) and the EC50 [23] was > 53 µM (inactive).
In the case of `O=C(COc1ccc(F)cc1)Nc1nnc(-c2ccc(F)c(F)c2)o1`, the EC50 [24] is reported as 3.7 µM (active).
